Test results published in PMC7367283, “A PIP2 substitute mediates voltage sensor-pore coupling in KCNQ activation” (Communications Biology, 2020).
Values joined by “and” are separate entries in the source; they are usually repeats but may differ in a detail not shown here. Identical values can stand only once.

Tests used:
Assay in all cases: Two-electrode voltage clamp of mutant KCNQ1 in Xenopus oocytes
Format in all cases: cell-based
KCNQ1 R249A = KCNQ1 R249A (Homo sapiens, UniProt P51787, R249A)
From the text: (§1) In a previous study, mutation of residues in the predicted PIP2-binding site reduced KCNQ1 currents. CP1 modifies voltage-dependent activation of KCNQ1 channels by shifting the voltage dependence of channel opening, measured as the voltage dependence of the conductance (G–V) relationship, to more negative voltages (Fig. 1c) among other characteristics (see below). We made mutations to the residues around the CP1-interacting pocket as indicated by molecular docking (Fig. 1b), and examined the effects of the mutations on the CP1-induced shift of the G–V relationship. The mutations of the KCNQ1 residues that interact with CP1 in docking simulations reduced the shift of the G–V relationship (Fig. 1c, d), supporting the interaction of these residues with CP1.
(§2) Complementary DNA (cDNA) encoding human KCNQ1 (UniProtKB/Swiss‐Prot under accession no. P51787), KCNQ2 (O43526), KCNQ3 (O43525), KCNE1 (P15382), Kir1.1 (P48048), hERG (Q12809), KV4.2 (Q63881), NaV1.5 (Q14524), NaV β1 (Q07699), CaV1.2 (Q13936), CaV β1a (Q02641), CaV α2/δ1 (P54289), and HCN4 (Q9Y3Q4) were subcloned into oocyte expression vectors, respectively. Site-directed mutations of the KCNQ1 channel were all produced by overlap extension polymerase chain reaction (PCR) with high-fidelity Pfu polymerase (Stratagene, CA). The presence of the desired mutation was verified by sequencing the PCR-amplified regions. All the primer sequences used in this study are available in Supplementary Table 1. The complementary RNA (cRNA) of all these channels and mutations was transcribed in vitro with the T3, T7, or SP6 polymerase mMessage mMachine kit (Invitrogen, Thermo Fisher Scientific, MO).
(§3) The use of Xenopus laevis to obtain oocytes was approved by the Washington University Animal Studies Committee (protocol #20190030). Oocytes were manually dispersed and digested with collagenase (0.5 mg/ml, Sigma-Aldrich, Saint Louis, MO) to remove the follicle cell layer. Stage V or VI oocytes were selected and injected with cRNAs (9.2 ng) of channel or mutations. Especially, to characterize IKs, a mix of cRNAs at a molar ratio 4:1 (KCNQ1:KCNE1) was injected. For KCNQ2/KCNQ3, the molar ratio was 1:1 (KCNQ2:KCNQ3). For sodium channels, a 3:1 molar ratio (β1:NaV1.5) and for calcium channels a weight ratio 1:1:1 (β1:α2/δ1:CaV1.2) was injected, respectively. Injected oocytes were incubated in ND96 solution containing (in mM) 96 NaCl, 2 KCl, 1.8 CaCl2, 1 MgCl2, and 5 HEPES, pH 7.6, supplemented with 2.5 mM Na pyruvate and 1% penicillin–streptomycin, at 18 °C for 3–7 days before recording.
(§4) The whole-oocyte ionic currents were recorded with a GeneClamp 500B amplifier (Axon Instruments, CA) or iTEV90 amplifier (HEKA, Germany) and then sampled at 1 kHz and low-pass-filtered at 2 kHz. The Patchmaster software (HEKA, Germany) was used to acquire data. The Kir1.1 current was recorded with a high K^+ bath solution containing (in mM) 96 KCl, 4 NaCl, 1 CaCl2, 2 MgCl2, and 10 HEPES, pH 7.3–7.4. The HCN4 current was recorded in ND66 solution containing (in mM) 66 NaCl, 32 KCl, 1.8 CaCl2, 1 MgCl2, and 5 HEPES, pH 7.6. All the other potassium channels were recorded in ND96 solution. The currents of CaV1.2 channel were recorded in 40 mM Ba^2+ bath solution containing (in mM) 40 Ba(OH)2, 50 TEA-OH, 2 KOH, and 5 HEPES, adjusted to pH 7.4 with methanesulfonic acid. CP1 (DISODIUM 5-BROMO-2-[9-CHLORO-3-(SULFONATOOXY) NAPHTHO [1,2-B] THIEN-2-YL]-1H-INDOL-3-YL SULFATE, Sigma-Aldrich, MO) and Chromanol 293B (Sigma-Aldrich, MO) were dissolved in bath solutions. All the chemicals were purchased from Sigma-Aldrich. To measure the I–V relations of the Kir1.1 channel, the test voltage was set from −100 to +60 mV for 1 s with 20-mV increments. The test pulses were stepped from a holding potential of 0 mV and then stepped back to 0 mV. The HCN4 currents were recorded by a test pulse between −30 and −140 mV in 10-mV step from a holding potential of −30 mV. […]

KCNQ1 K354A = KCNQ1 K354A (Homo sapiens, UniProt P51787, K354A)
From the text: as §1, §2, §3, §4

KCNQ1 R249A/S253A = KCNQ1 R249A/S253A (Homo sapiens, UniProt P51787, R249A/S253A); conditions: 10 µM CP1, individual oocytes
From the text: as §1, §2, §3, §4

KCNQ1 W248R = KCNQ1 W248R (Homo sapiens, UniProt P51787, W248R); conditions: 10 µM CP1, individual oocytes
From the text: as §1, §2, §3, §4

KCNQ1 S253A = KCNQ1 S253A (Homo sapiens, UniProt P51787, S253A)
From the text: as §1, §2, §3, §4

KCNQ1 R249A/K354A = KCNQ1 R249A/K354A (Homo sapiens, UniProt P51787, K354A/R249A); conditions: 10 µM CP1, individual oocytes
From the text: as §1, §2, §3, §4

Work on `O=S(=O)([O-])Oc1c(-c2sc3c(ccc4cccc(Cl)c43)c2OS(=O)(=O)[O-])[nH]c2ccc(Br)cc12.[Na+].[Na+]` [CP1, DISODIUM 5-BROMO-2-[9-CHLORO-3-(SULFONATOOXY) NAPHTHO [1,2-B] THIEN-2-YL]-1H-INDOL-3-YL SULFATE] yielded a G/Gmax (KCNQ1 R249A; 10 µM CP1, 0 mV) of 0.9092, a G/Gmax (KCNQ1 R249A; 10 µM CP1, 10 mV) of 0.9509 and a G/Gmax (KCNQ1 R249A; 10 µM CP1, 20 mV) of 0.9864. The G/Gmax (KCNQ1 R249A; 10 µM CP1, 30 mV) was 1.0000, the G/Gmax (KCNQ1 R249A; 10 µM CP1, -10 mV) was 0.8439 and the G/Gmax (KCNQ1 R249A; 10 µM CP1, -20 mV) was 0.7664. It also gave a G/Gmax (KCNQ1 R249A; 10 µM CP1, -30 mV) of 0.6715, a G/Gmax (KCNQ1 R249A; 10 µM CP1, -40 mV) of 0.5716 and a G/Gmax (KCNQ1 R249A; 10 µM CP1, -50 mV) of 0.4548. It also gave a G/Gmax (KCNQ1 R249A; 10 µM CP1, -60 mV) of 0.3517, a G/Gmax (KCNQ1 R249A; 10 µM CP1, -70 mV) of 0.2667 and a G/Gmax (KCNQ1 R249A; 10 µM CP1, -80 mV) of 0.1987. It also gave a G/Gmax (KCNQ1 R249A; 10 µM CP1, -90 mV) of 0.1385, a G/Gmax (KCNQ1 R249A; 10 µM CP1, -100 mV) of 0.0990 and a G/Gmax (KCNQ1 R249A; 10 µM CP1, -110 mV) of 0.0539. For the same molecule, the G/Gmax (KCNQ1 R249A; 10 µM CP1, -120 mV) was 0.0000, the “∆V1/2” value (KCNQ1 R249A; 10 µM CP1, individual oocytes) was 32.4733 mV and 36.93 mV and 39.3292 mV and 47.5115 mV and 29.4037 mV and the G/Gmax (KCNQ1 K354A; 10 µM CP1, -10 mV) was 1.0000. The G/Gmax (KCNQ1 K354A; 10 µM CP1, -20 mV) was 0.9896, the G/Gmax (KCNQ1 K354A; 10 µM CP1, -30 mV) was 0.9492 and the G/Gmax (KCNQ1 K354A; 10 µM CP1, -40 mV) was 0.8838. It also gave a G/Gmax (KCNQ1 K354A; 10 µM CP1, -50 mV) of 0.7639, a G/Gmax (KCNQ1 K354A; 10 µM CP1, -60 mV) of 0.6020 and a G/Gmax (KCNQ1 K354A; 10 µM CP1, -70 mV) of 0.4417. For the same molecule, the G/Gmax (KCNQ1 K354A; 10 µM CP1, -80 mV) was 0.3190, the G/Gmax (KCNQ1 K354A; 10 µM CP1, -90 mV) was 0.2082 and the G/Gmax (KCNQ1 K354A; 10 µM CP1, -100 mV) was 0.1212. For the same molecule, the G/Gmax (KCNQ1 K354A; 10 µM CP1, -110 mV) was 0.0566, the G/Gmax (KCNQ1 K354A; 10 µM CP1, -120 mV) was 0.0000 and the “∆V1/2” value (KCNQ1 K354A; 10 µM CP1, individual oocytes) was 42.6379 mV and 47.4781 mV and 37.0916 mV and 51.9279 mV and 26.7588 mV. The “∆V1/2” value (KCNQ1 R249A/S253A) was 49.1729 mV and 54.4047 mV and 38.3473 mV, the “∆V1/2” value (KCNQ1 W248R) was 27.0173 mV and 42.5898 mV and 38.6048 mV and the G/Gmax (KCNQ1 S253A; 10 µM CP1, -10 mV) was 1.0000. The G/Gmax (KCNQ1 S253A; 10 µM CP1, -20 mV) was 0.9987, the G/Gmax (KCNQ1 S253A; 10 µM CP1, -30 mV) was 0.9693 and the G/Gmax (KCNQ1 S253A; 10 µM CP1, -40 mV) was 0.9339. For the same molecule, the G/Gmax (KCNQ1 S253A; 10 µM CP1, -50 mV) was 0.8910, the G/Gmax (KCNQ1 S253A; 10 µM CP1, -60 mV) was 0.8327 and the G/Gmax (KCNQ1 S253A; 10 µM CP1, -70 mV) was 0.7485. The G/Gmax (KCNQ1 S253A; 10 µM CP1, -80 mV) was 0.6141, the G/Gmax (KCNQ1 S253A; 10 µM CP1, -90 mV) was 0.4531 and the G/Gmax (KCNQ1 S253A; 10 µM CP1, -100 mV) was 0.2784. The G/Gmax (KCNQ1 S253A; 10 µM CP1, -110 mV) was 0.1217, the G/Gmax (KCNQ1 S253A; 10 µM CP1, -120 mV) was 0.0000 and the “∆V1/2” value (KCNQ1 S253A; 10 µM CP1, individual oocytes) was 62.813 mV and 60.7614 mV and 50.2508 mV and 66.8458 mV. The “∆V1/2” value (KCNQ1 R249A/K354A) was 32.102 mV and 39.1842 mV and 11.494 mV and 26.1488 mV and 17.9511 mV.
